Data as given in ChEMBL document CHEMBL1201862, “PubChem BioAssay data set” (2004).
Values joined by “and” are separate entries in the source; they are usually repeats but may differ in a detail not shown here. Equal values may be shown once. Active and inactive are the calls of the source.

Tests used:
[1] = biological target: T1, Short transient receptor potential channel 4 (Mus musculus, UniProt Q9QUQ5); experiment: mouse TRPC4 channel inhibitors, dose response, cell-based, HEK293 TRPC4/mu-opioid, Fluo-4 calcium (AID 434942); type: functional;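 note: potency of inhibitors blocking the TRPC4 calcium response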
T1 sequence (Q9QUQ5 whole entry): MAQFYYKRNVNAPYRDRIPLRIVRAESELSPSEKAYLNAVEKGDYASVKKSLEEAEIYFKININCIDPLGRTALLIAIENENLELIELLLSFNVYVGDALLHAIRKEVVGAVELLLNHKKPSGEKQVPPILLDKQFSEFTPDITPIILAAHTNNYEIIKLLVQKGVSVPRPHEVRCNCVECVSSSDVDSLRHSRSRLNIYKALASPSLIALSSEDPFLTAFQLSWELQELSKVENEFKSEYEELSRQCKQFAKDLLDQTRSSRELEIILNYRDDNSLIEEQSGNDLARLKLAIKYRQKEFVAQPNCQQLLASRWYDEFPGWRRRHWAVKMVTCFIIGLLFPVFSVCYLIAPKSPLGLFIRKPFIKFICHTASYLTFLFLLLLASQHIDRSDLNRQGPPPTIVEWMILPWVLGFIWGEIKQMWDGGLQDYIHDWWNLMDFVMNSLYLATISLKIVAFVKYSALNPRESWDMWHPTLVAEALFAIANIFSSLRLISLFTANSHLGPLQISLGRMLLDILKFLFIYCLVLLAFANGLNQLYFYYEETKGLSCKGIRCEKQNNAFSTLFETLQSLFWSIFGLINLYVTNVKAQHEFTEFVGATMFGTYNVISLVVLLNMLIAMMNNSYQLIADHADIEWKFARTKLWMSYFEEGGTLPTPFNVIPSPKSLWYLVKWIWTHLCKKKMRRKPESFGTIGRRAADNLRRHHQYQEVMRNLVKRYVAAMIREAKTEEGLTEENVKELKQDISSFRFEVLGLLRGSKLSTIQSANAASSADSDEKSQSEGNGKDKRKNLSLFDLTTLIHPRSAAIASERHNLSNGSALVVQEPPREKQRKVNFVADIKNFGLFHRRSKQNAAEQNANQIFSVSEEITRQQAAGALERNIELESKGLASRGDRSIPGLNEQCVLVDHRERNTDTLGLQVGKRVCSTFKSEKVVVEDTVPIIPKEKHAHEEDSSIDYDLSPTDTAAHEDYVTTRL

[2] = biological target: Glucose-6-phosphate 1-dehydrogenase (Homo sapiens, UniProt P11413); experiment: human G6PD enzyme inhibitors, dose response, selectivity assay for P. falciparum G6PD inhibitor project, biochemical, fluorescence (AID 504792); type: functional
Cytochrome P450 2C19 = Cytochrome P450 2C19 (Homo sapiens, UniProt P33261); experiment: Cytochrome panel assay with activity outcomes. Panel member name: p450-cyp2c19 Compounds with AC50 equal or less than 10 uM are considered active; type: functional; settings: read-out: AC50
Cytochrome P450 2C9 [3] = biological target: T2, Cytochrome P450 2C9 (Homo sapiens, UniProt P11712)
Cytochrome P450 3A4 [4] = biological target: T3, Cytochrome P450 3A4 (Homo sapiens, UniProt P08684);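 note: CYP3A4 tested as one member of a cytochrome P450 panel screen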
Coagulation factor XII = biological target: T4, Coagulation factor XII (Homo sapiens, UniProt P00748); type: functional;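 note: activated factor XIIa alpha cleaving a fluorogenic AMC peptide substrate; inhibitor potency from loss of enzyme activity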
T4 sequence (P00748 whole entry): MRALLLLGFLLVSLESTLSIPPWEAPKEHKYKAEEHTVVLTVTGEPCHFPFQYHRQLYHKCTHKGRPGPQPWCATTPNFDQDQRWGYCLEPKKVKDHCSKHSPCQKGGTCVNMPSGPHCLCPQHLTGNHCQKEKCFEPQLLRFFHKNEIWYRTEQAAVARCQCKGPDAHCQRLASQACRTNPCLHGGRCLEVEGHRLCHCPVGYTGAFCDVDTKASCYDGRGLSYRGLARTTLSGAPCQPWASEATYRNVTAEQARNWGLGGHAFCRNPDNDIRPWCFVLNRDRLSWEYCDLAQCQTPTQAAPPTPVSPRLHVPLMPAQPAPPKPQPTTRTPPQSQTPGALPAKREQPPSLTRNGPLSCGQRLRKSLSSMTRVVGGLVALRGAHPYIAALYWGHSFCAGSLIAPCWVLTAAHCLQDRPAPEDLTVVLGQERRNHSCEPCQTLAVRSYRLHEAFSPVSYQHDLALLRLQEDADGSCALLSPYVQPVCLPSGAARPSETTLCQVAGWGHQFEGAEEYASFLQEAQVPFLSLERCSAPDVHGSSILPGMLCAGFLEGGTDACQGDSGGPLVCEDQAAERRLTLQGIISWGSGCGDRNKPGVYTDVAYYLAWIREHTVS

[5] = Luminescence Cell-Based Dose Response to Identify Activators of 5'UTR Stem-Loop Driven Prion Protein mRNA Translation in H4-C Neuroglioblastoma Cells. [Related pubchem assays: 1829 (Project Summary), 1814 (Primary HTS)]; type: functional
[6] = Luminescence Cell-Based Dose Confirmation HTS to Identify Activators of 5'UTR Stem-Loop Driven Alpha-Synuclein mRNA Translation in H4 Neuroglioblastoma Cells. [Related pubchem assays: 1829 (Project Summary), 1814 (Primary HTS)]; type: functional
[7] = Luminescence Cell-Based Dose Response HTS to Identify Activators of Luciferase Translation or Activity in H4 […] Cells. [Related pubchem assays: 1829 (Project Summary), 1814 (Primary HTS)]; type: functional
H4 = experiment: Luminescence Cell-Based Dose Response HTS to Identify Activators of 5'UTR Stem-Loop Driven Prion Protein mRNA Translation in H4 Neuroglioblastoma Cells. [Related pubchem assays: 1829 (Project Summary), 1814 (Primary HTS)]; type: functional; settings: Homo sapiens
[8] = Luminescence Cell-Based Dose Response to Identify Activators of Luciferase Translation or Activity in H4-C Neuroglioblastoma Cells. [Related pubchem assays: 1829 (Project Summary), 1814 (Primary HTS)]; type: functional
[9] = Luminescence Cell-Based Dose Confirmation to Identify Activators of 5'UTR Stem-Loop Driven Alpha-Synuclein mRNA Translation in H4 Neuroglioblastoma Cells. [Related pubchem assays: 1829 (Project Summary), 1814 (Primary HTS)]; type: functional
Jurkat = experiment: antigen receptor-induced NF-kB inhibitors, dose response, Jurkat, luciferase reporter, luminescence, B- and T-cell (AID 489004); type: functional, cell-based; settings: Homo sapiens;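 note: NF-kB luciferase reporter Jurkat cells stimulated with PMA plus ionomycin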
[10] = cytotoxicity in HEK-293T NF-kB-Luc cells, dose response, cytotoxicity control for B/T-cell NF-kB inhibitor project, cell-based, uHTS hits (AID 489019); type: functional;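 note: IC50 reflects cytotoxicity as loss of cell viability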
Cytochrome P450 1A2 = biological target: T5, Cytochrome P450 1A2 (Homo sapiens, UniProt P05177);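 note: PubChem cytochrome P450 panel assay, CYP1A2 panel member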
T5 sequence (P05177 whole entry): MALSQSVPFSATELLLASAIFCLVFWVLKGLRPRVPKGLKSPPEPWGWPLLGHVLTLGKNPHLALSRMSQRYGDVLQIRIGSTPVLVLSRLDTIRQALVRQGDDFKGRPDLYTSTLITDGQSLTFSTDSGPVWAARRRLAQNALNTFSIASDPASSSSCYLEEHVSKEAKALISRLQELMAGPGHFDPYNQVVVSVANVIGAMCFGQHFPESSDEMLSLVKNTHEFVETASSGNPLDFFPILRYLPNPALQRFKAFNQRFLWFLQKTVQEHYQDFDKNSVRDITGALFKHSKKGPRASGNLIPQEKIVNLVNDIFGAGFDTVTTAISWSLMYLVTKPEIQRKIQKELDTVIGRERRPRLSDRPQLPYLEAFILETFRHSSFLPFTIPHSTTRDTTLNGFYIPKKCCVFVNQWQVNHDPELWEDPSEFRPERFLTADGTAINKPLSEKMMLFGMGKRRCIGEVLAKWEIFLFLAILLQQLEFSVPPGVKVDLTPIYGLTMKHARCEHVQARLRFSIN

Cytochrome P450 2C9 [11] = biological target: T2, Cytochrome P450 2C9; remark: listed apart in the source
[12] = biological target: T6, Heat shock factor protein 1 (Mus musculus, UniProt P38532); experiment: HSF1 potentiators in luciferase reporter cells, confirmation, cell-based, NIH3T3, luminescence, dose retest (AID 435004); type: functional;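 note: stress induced by proteasome inhibitor MG132 added 30 min after compound; luciferase reporter driven by HSF1 response element in NIH3T3 cells; actives raise luminescence as potentiators of the MG132 stress response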
T6 sequence (P38532 whole entry): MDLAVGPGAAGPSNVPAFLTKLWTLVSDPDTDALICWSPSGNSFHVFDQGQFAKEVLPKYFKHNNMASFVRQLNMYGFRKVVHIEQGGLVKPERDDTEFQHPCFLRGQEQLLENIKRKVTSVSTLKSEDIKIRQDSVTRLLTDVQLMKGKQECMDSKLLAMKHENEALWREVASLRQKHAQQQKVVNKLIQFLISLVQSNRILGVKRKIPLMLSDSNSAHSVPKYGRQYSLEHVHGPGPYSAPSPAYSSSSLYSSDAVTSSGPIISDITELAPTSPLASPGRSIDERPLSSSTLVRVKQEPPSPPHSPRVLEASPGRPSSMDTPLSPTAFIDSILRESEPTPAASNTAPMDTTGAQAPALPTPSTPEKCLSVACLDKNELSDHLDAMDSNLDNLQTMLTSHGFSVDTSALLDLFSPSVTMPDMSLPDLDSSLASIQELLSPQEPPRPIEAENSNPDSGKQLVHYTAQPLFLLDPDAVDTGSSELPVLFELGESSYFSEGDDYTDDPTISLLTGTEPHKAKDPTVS

Vero = experiment: cells; type: functional; settings: Chlorocebus sabaeus
[13] = biological target: T1, Short transient receptor potential channel 4; experiment: mouse TRPC4 channel activators, dose response, cell-based, HEK293 TRPC4/mu-opioid, Fluo-4 calcium (AID 434937); type: functional
Cytochrome P450 2D6 = Cytochrome P450 2D6 (Homo sapiens, UniProt P10635);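 note: CYP2D6 member of a cytochrome P450 panel assay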
Cytochrome P450 3A4 [14] = biological target: T3, Cytochrome P450 3A4; remark: listed apart in the source
[15] = THP-1 cell cytotoxicity, dose response, cytotoxicity control for non-replicating M. tuberculosis project (AID 489025); type: functional
cells = type: functional
[16] = Luminescence Cell-Based Dose Retest to Confirm Inhibitors of Cancer Stem Cells. [Related pubchem assays (depositor defined):AID2717, AID2721]; type: functional; settings: Homo sapiens
[17] = biological target: Luciferin 4-monooxygenase (Photinus pyralis, UniProt P08659); experiment: firefly luciferase enzyme inhibitors, dose response, biochemical, luminescence (AID 1891)
[18] = Luminescence Cell-Based Dose Confirmation HTS to Identify Inhibitors of Platelet Dense Granule Release. [Related pubchem assays: 1663 (Primary HTS), 1678 (Summary of Project)]; type: functional

Sequence of Cytochrome P450 2D6 (P10635 whole entry): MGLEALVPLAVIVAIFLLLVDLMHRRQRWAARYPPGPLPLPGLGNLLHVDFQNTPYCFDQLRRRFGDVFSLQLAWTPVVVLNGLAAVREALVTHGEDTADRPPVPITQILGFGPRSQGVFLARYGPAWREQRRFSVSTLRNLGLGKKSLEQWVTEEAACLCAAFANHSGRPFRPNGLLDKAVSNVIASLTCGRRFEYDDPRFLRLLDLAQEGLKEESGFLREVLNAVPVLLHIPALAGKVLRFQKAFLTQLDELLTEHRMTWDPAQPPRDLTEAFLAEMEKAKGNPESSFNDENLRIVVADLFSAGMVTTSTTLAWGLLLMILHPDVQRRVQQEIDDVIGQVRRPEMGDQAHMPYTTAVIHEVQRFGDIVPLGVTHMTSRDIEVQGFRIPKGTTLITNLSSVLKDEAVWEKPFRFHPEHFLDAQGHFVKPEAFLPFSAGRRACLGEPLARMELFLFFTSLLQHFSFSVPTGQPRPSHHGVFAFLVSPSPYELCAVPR
T3 sequence (P08684 whole entry): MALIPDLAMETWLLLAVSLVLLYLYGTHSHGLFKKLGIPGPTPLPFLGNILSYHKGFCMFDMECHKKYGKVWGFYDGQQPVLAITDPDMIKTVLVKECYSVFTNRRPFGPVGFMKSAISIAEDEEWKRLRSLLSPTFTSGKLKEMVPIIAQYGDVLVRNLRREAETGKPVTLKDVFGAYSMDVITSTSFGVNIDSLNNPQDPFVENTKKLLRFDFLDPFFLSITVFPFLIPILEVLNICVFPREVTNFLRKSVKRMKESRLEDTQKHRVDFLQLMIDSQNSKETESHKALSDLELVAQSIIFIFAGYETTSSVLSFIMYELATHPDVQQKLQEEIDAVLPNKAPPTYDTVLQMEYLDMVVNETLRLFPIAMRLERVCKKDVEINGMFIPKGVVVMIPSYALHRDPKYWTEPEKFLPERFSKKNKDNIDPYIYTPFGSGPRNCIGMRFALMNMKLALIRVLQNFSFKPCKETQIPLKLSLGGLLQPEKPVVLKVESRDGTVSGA
T2 sequence (P11712 whole entry): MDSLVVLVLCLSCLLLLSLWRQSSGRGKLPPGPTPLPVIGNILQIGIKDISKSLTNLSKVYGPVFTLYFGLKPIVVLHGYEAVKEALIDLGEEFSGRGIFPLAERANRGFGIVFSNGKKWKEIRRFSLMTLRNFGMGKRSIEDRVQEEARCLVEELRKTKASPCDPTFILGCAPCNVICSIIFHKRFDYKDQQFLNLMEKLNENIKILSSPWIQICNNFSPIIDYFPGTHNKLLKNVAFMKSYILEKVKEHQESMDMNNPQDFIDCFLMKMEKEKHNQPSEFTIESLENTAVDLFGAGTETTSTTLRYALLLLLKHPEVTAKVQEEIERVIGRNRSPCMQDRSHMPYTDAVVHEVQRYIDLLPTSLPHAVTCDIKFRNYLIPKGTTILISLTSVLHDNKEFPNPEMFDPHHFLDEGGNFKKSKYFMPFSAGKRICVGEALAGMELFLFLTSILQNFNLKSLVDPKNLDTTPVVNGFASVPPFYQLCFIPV
Sequence of Glucose-6-phosphate 1-dehydrogenase (P11413 whole entry): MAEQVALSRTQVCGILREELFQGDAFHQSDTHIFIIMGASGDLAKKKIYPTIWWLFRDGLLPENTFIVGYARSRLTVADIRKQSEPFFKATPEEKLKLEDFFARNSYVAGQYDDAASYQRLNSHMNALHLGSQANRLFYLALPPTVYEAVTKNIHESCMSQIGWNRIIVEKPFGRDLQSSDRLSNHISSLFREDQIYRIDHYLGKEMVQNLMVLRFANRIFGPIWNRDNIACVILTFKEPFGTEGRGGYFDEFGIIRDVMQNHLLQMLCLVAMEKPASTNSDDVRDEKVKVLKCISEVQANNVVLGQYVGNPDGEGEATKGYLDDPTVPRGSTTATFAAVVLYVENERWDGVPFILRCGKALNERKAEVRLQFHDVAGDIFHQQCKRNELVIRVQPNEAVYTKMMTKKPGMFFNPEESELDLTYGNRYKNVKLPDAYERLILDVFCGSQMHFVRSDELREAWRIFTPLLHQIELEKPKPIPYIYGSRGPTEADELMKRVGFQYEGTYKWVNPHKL
Sequence of Cytochrome P450 2C19 (P33261 whole entry): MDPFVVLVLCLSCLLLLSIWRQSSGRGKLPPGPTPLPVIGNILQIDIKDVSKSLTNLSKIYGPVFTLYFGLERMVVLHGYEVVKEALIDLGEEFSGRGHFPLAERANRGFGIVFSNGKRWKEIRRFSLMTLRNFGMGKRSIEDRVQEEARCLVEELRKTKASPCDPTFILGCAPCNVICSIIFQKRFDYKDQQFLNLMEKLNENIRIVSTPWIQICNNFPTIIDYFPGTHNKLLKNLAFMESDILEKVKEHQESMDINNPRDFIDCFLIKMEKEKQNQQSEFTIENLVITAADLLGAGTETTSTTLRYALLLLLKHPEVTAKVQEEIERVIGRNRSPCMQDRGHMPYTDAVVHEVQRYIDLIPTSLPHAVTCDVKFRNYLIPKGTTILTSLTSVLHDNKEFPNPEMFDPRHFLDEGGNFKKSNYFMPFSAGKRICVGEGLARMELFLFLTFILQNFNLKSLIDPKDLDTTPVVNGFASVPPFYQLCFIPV
Sequence of Luciferin 4-monooxygenase (P08659 whole entry): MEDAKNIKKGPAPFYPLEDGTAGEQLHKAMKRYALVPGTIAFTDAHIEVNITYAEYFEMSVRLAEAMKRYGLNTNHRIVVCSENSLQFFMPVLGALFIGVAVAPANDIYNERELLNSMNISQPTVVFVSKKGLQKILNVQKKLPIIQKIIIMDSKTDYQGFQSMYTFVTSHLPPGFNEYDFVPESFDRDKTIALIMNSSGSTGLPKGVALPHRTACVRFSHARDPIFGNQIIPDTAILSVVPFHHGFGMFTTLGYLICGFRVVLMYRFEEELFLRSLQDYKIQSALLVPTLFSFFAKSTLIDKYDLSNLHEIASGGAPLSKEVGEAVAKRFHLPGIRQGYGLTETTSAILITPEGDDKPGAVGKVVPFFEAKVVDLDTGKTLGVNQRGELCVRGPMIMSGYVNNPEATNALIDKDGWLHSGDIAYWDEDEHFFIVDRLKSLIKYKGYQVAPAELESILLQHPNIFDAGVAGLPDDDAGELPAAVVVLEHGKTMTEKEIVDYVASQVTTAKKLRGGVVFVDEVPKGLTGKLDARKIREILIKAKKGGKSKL

## COCCn1c(SCC(=O)c2ccccc2)nc2ccccc2c1=O
[1]
  EC50: 0.376 µM (active)

## O=C1C(c2cc(O)c3ccccc3n2)=C(O)c2ccccc21
[2]
  IC50: 53.4 µM (inactive)

## CCOC(=O)c1ccc(N2C(=O)CC(Nc3ccc(CCO)cc3)C2=O)cc1 (stereo not drawn)
Cytochrome P450 2C19
  AC50: 8.91 µM (inconclusive)
Cytochrome P450 2C9 [3]
  AC50: 6.31 µM (inconclusive)
Cytochrome P450 3A4 [4]
  AC50: inconclusive

## COC(=O)Cc1c(C)nc2ncnn2c1O
Coagulation factor XII
  IC50: > 50 µM (inactive)

## c1csc(-c2nc(N3CCCCC3)no2)c1
[5]
  EC50: 0.38 µM (active)
[6]
  EC50: < 0.1 µM (active)
[7]
  EC50: < 0.1 µM (active)
H4
  EC50: 1.22 µM (active)
[8]
  EC50: 0.36 µM (active)
[9]
  EC50: 0.29 µM (active)

## COc1cc(NCCCn2cnc3c(OCc4ccccc4)ncnc32)cc(OC)c1OC
[2]
  IC50: > 80 µM (inactive)

## Cc1cc([N+](=O)[O-])nn1Cc1ccccc1F
Jurkat
  IC50: > 80 µM (inactive)
[10]
  IC50: > 80 µM (inactive)
Cytochrome P450 1A2
  AC50: 22.4 µM (inconclusive)
Cytochrome P450 2C9 [11]
  AC50: inconclusive

## CN(NC1OC(=O)c2ccccc21)c1ncc(Cl)cc1C(F)(F)F (stereo not drawn)
Coagulation factor XII
  IC50: > 50 µM (inactive)
[12]
  EC50: > 260 µM (inactive)

## Cc1cc(=O)n2c(n1)SCOC2
Coagulation factor XII
  IC50: > 50 µM (inactive)

## CNC(=O)c1ccc(N(Cc2ccccc2)S(C)(=O)=O)cc1
Coagulation factor XII
  IC50: > 50 µM (inactive)

## CCN(CC)CCCN(C(=O)c1ccccc1F)c1nc(-c2ccc(OC)cc2)cs1
Vero
  CC50: 17.6 µM (active)

## COc1ccc(CCN(C)CCN2C(=O)c3ccccc3C2=O)cc1OC
[1]
  EC50: 1.88 µM (active)
[13]
  EC50: 1.06 µM (active)

## COc1cc2c(cc1OC)[C@H](c1ccccc1)CN(C)CC2
Cytochrome P450 2D6
  AC50: 31.6 µM (inconclusive)
Cytochrome P450 3A4 [4]
  AC50: inconclusive

## COc1ccc(CCc2cc(OC)c(OC)c(OC)c2)cc1
Vero
  CC50: 1.66 µM (active)

## COc1ccc(OC)c(C2C3=C(O)OCC3=Nc3cc4c(cc32)OCO4)c1 (stereo not drawn)
Jurkat
  IC50: > 80 µM (inactive)
[10]
  IC50: > 80 µM (inactive)
Cytochrome P450 2D6
  AC50: 22.4 µM (inconclusive)
Cytochrome P450 1A2
  AC50: 10 µM (inconclusive)
Cytochrome P450 2C9 [3]
  AC50: 7.94 µM (inconclusive)

## O=C(C1CCN(CC2CC=CCC2)CC1)N(CCc1ccccc1)Cc1ccccc1 (stereo not drawn)
[1]
  EC50: 2.66 µM (active)

## O=C(c1cnccn1)N1CCC2(CC1)CCN(c1ccccn1)CC2
Cytochrome P450 3A4 [4]
  AC50: inconclusive

## OC1(c2ccc(Cl)cc2)CCN(Cc2c[nH]c3ccccc23)CC1
Cytochrome P450 3A4 [4]
  AC50: inconclusive
Cytochrome P450 2C9 [11]
  AC50: inconclusive

## N=C(N)NC(=N)Nc1cccc(Cl)c1
Cytochrome P450 2D6
  AC50: 25.1 µM (inconclusive) and 39.8 µM (inconclusive)
Cytochrome P450 3A4 [14]
  AC50: 79.4 µM (inconclusive)
Cytochrome P450 3A4 [4]
  AC50: inconclusive

## O=C(CCc1ccc(Oc2cc([N+](=O)[O-])cc([N+](=O)[O-])c2)cc1)N1CCCCC1
[15]
  CC50: > 40 µM (active)
cells
  IC50: 11.4 µM (active)

## CC(=O)O[C@H]1[C@H]2O[C@]23[C@@H]2CC[C@]4(O)C[C@@H](O)CC[C@]4(C)[C@H]2CC[C@]3(C)[C@H]1c1ccc(=O)oc1 [CINOBUFOTALIN]
[16]
  AC50: < 0.16 µM (active)
Jurkat
  IC50: 3.19 µM (active)
[10]
  IC50: > 80 µM (inactive)

## Cc1ccc(C(=O)ONc2ccc(N=O)cc2)cc1
[17]
  EC50: < 0.088 µM (active)
[18]
  EC50: 2.69 µM (active)
Coagulation factor XII
  IC50: 29.8 µM (active)

## CCCCNc1nc2ccccc2[nH]1
[1]
  EC50: 2.99 µM (active)
